This passage reports TGI and GI50 results from PubChem BioAssay (NCI).

SMILES strings stand for the structures.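 Step 1: Grow cells in 96-well plates. Step 2: Expose to compound for 48 hours at 5 concentrations. Step 3: Interpolate endpoints linearly; if unreached, use highest concentration. GI50 marks 50% less growth. The concentration for full growth arrest is given as TGI.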 Where only a bound is given, the exact number is not on record here.

Test systems include OVCAR-4 ovarian; SK-MEL-28 melanoma; M14 melanoma; DU-145 prostate; UACC-62 melanoma; MCF7 breast; OVCAR-8 ovarian; COLO 205 colon; SF-268 CNS; SR leukemia.
Holding throughout (experiment): NCI tumour cell line growth inhibition, 48 h

Turning to `CN1c2ccccc2C(=O)Nc2cnc(Cl)nc21`, the TGI in the experiment on OVCAR-4 ovarian, in the experiment on SK-MEL-28 melanoma, in the experiment with M14 melanoma, in the experiment with DU-145 prostate, in the experiment on UACC-62 melanoma and in the experiment on MCF7 breast was above 100 µM in each case. For the same compound, the TGI with OVCAR-8 ovarian and in the experiment with COLO 205 colon was above 100 µM throughout.

For `COC1C(CO)OC(n2c3ccccc3c3c4c(c5c6ccccc6[nH]c5c32)C(=O)NC4=O)C(O)C1OC(=O)C(N)CCCCN` (stereo not drawn), the GI50 in the experiment with OVCAR-4 ovarian is 3.83 µM; in the experiment with SK-MEL-28 melanoma, 2.67 µM; with M14 melanoma it was 0.689 µM; in the experiment on DU-145 prostate, 0.659 µM; in the experiment on UACC-62 melanoma it was 0.283 µM; with SF-268 CNS it was 0.379 µM. For the same compound, the GI50 in the experiment with MCF7 breast is 1.13 µM; with OVCAR-8 ovarian, 0.49 µM; in the experiment on COLO 205 colon it was 1.27 µM. For the same compound, the TGI with OVCAR-4 ovarian is above 50 µM; in the experiment with SK-MEL-28 melanoma, above 18.2 µM; in the experiment on M14 melanoma, above 11 µM; in the experiment with DU-145 prostate it was 4.05 µM; with UACC-62 melanoma, 1.3 µM; in the experiment with SF-268 CNS, 14.5 µM. Further, the TGI with MCF7 breast is above 50 µM; with OVCAR-8 ovarian it was above 50 µM; in the experiment on COLO 205 colon it was above 17.2 µM.

Take `O=C1CC2Sc3ccccc3N=C2N1c1ccc(Cl)cc1Cl` (stereo not drawn): the TGI in the experiment with OVCAR-4 ovarian, in the experiment on SK-MEL-28 melanoma, with M14 melanoma, with UACC-62 melanoma, with SF-268 CNS and in the experiment with OVCAR-8 ovarian was above 100 µM in each case. This compound also displayed a TGI with COLO 205 colon above 100 µM.

Consider `O=[N+]([O-])O.[NH-]C1CCCCC1[NH-].[NH-]C1CCCCC1[NH-].[NH-]C1CCCCC1[NH-].[OH-].[OH-].[OH-].[Pt+4].[Pt+4].[Pt+4]` (stereo not drawn), for which the TGI was above 100 µM in the experiment with OVCAR-4 ovarian; 43.2 µM in the experiment on SK-MEL-28 melanoma; 11.9 µM in the experiment with M14 melanoma; 50 µM with DU-145 prostate; 16.5 µM with UACC-62 melanoma; above 50.2 µM with SF-268 CNS. Besides, the figures for the TGI in the experiment on MCF7 breast, in the experiment on OVCAR-8 ovarian and in the experiment on COLO 205 colon were above 45.6 µM, above 74.1 µM and 27.9 µM, respectively. The GI50 in the experiment with SK-MEL-28 melanoma was 1.43 µM; in the experiment with M14 melanoma it was 0.918 µM; in the experiment on DU-145 prostate, 1.35 µM; with UACC-62 melanoma, 0.3 µM; in the experiment with SF-268 CNS it was 0.791 µM; in the experiment on MCF7 breast, 0.157 µM. Moreover, the GI50 was 0.382 µM in the experiment with OVCAR-8 ovarian and 0.631 µM with COLO 205 colon.

Consider `N#CC(=C=[N-])[n+]1ccc(Cl)cc1`, for which the TGI with OVCAR-4 ovarian is 39.8 µM; with M14 melanoma, 31.1 µM; in the experiment with UACC-62 melanoma, 29.9 µM; in the experiment on SR leukemia, 62.2 µM; in the experiment with SF-268 CNS, 28.2 µM; in the experiment with OVCAR-8 ovarian, 37.9 µM. In addition, the TGI in the experiment on COLO 205 colon is 32.9 µM.

As for `COC(=O)Nc1nc2ccc(Sc3ccc(NC(=O)Nc4cc(C(F)(F)F)ccc4F)cc3)cc2[nH]1`, the GI50 in the experiment with OVCAR-4 ovarian is 3.64 µM; in the experiment with SK-MEL-28 melanoma, 2.81 µM; with M14 melanoma, 2.01 µM; with DU-145 prostate it was 4.15 µM; with UACC-62 melanoma, 1.85 µM; with SF-268 CNS, 3.89 µM. Besides, the GI50 with MCF7 breast is 0.988 µM; with OVCAR-8 ovarian it was 4.23 µM; in the experiment with COLO 205 colon, 3.67 µM. In addition, the TGI in the experiment on OVCAR-4 ovarian was found to be 10.7 µM; with SK-MEL-28 melanoma, 16.5 µM; with M14 melanoma, 8.26 µM; with DU-145 prostate, 8.27 µM; in the experiment with UACC-62 melanoma it was 8.38 µM; in the experiment with SF-268 CNS, 9.6 µM. The TGI in the experiment on MCF7 breast was determined as 5.33 µM; with OVCAR-8 ovarian it was 11.6 µM; in the experiment with COLO 205 colon it was 9.29 µM.

With `C/C(=N/Nc1ccc([N+](=O)[O-])cc1[N+](=O)[O-])C(CC(C(=O)Nc1ccccc1C)/C(C)=N\Nc1ccc([N+](=O)[O-])cc1[N+](=O)[O-])C(=O)Nc1ccccc1C` (stereo not drawn), the TGI with OVCAR-4 ovarian was determined as 15.9 µM; in the experiment with SK-MEL-28 melanoma it was 51.1 µM; in the experiment with M14 melanoma it was 46 µM; with UACC-62 melanoma, 69.4 µM; in the experiment with SF-268 CNS, 23.7 µM; in the experiment with OVCAR-8 ovarian, 14 µM. Further, in the experiment on COLO 205 colon, the TGI stood at 25.4 µM.

Consider `Cc1ns/c(=N\C(=S)N(C)C)n1C`, for which the TGI in the experiment on OVCAR-4 ovarian, in the experiment on SK-MEL-28 melanoma, in the experiment on M14 melanoma, in the experiment on UACC-62 melanoma, in the experiment on SR leukemia and in the experiment with SF-268 CNS was above 100 µM in each case. In the experiment on OVCAR-8 ovarian, this compound displayed a TGI above 100 µM.

Consider `CCN1CC2(C)CC[C@@H](OC)C34[C@@H]2[C@H](OC(C)=O)C2(OCO[C@@]25C[C@H](OC)C2C[C@]3(O)[C@@H]5[C@H]2O)[C@H]14`, for which the TGI in the experiment with OVCAR-4 ovarian, in the experiment with SK-MEL-28 melanoma, in the experiment on M14 melanoma, in the experiment on SR leukemia, with SF-268 CNS and in the experiment with OVCAR-8 ovarian was above 100 µM each time. For the same compound, in the experiment with COLO 205 colon, the TGI was above 100 µM.

Consider `CCSc1nc(N)c2cnn(C)c2n1`, for which the GI50 was 81.2 µM in the experiment with OVCAR-4 ovarian; 62.3 µM in the experiment with SK-MEL-28 melanoma; 52 µM in the experiment with M14 melanoma; 40 µM with DU-145 prostate; 29.5 µM in the experiment on UACC-62 melanoma; 33 µM in the experiment on SF-268 CNS. Further, the values for the GI50 with MCF7 breast, in the experiment on OVCAR-8 ovarian and with COLO 205 colon were 28 µM, 49.4 µM and 29.9 µM, respectively. For the same compound, the TGI was above 100 µM in the experiment with OVCAR-4 ovarian; above 100 µM with SK-MEL-28 melanoma; above 100 µM in the experiment with M14 melanoma; above 100 µM with DU-145 prostate; 69.6 µM in the experiment with UACC-62 melanoma; 85.1 µM in the experiment on SF-268 CNS. For the same compound, the TGI with MCF7 breast, with OVCAR-8 ovarian and in the experiment with COLO 205 colon was above 100 µM each time.

Turning to `CC(C)=C1CCC(CN2CCCC2)C1=O` (stereo not drawn), the TGI in the experiment with OVCAR-4 ovarian is 32.3 µM; with SK-MEL-28 melanoma it was 48.8 µM; in the experiment on M14 melanoma it was 34.1 µM; in the experiment on UACC-62 melanoma, above 100 µM; in the experiment on SR leukemia it was 35.9 µM; in the experiment with SF-268 CNS, 65.7 µM. In the experiment with OVCAR-8 ovarian, the TGI is above 100 µM.

In the case of `COc1cc(CC(=O)c2ccc3c(c2)OCO3)cc(OC)c1OC`, the TGI in the experiment on OVCAR-4 ovarian, in the experiment with SK-MEL-28 melanoma, in the experiment on M14 melanoma, in the experiment with UACC-62 melanoma, in the experiment on SF-268 CNS and with OVCAR-8 ovarian was above 100 µM each time. In the experiment with COLO 205 colon, the TGI is above 100 µM.
